Reference: patent publication US7446091B2, “Methods and preparations for curing clinically ill patients” (Novo Nordisk A/S, priority 2000, dated 2008)
Values joined by “and” are separate entries in the source; they are usually repeats but may differ in a detail not shown here. Equal values may be shown once.

Legend:
[1] = tested on: mechanically ventilated, adult patients admitted to the intensive care unit (ICU); experiment: Example 2: prospective, randomized, controlled study, mortality analysis; type: in vivo, human
Description: All mechanically ventilated, adult patients admitted to the intensive care unit (ICU) were eligible for inclusion.
All mechanically ventilated, adult (age>18y) patients admitted to our 56-bed, mainly surgical, ICU from Feb. 2, 2000 onward were considered eligible for inclusion. […] Informed consent was obtained from the closest family member. The study protocol was approved by the Institutional Review Board of the Catholic University of Leuven School of Medicine.
Consecutive patients were randomly assigned to one of these two treatment groups using blinded envelopes, stratified according to type of critical illness diagnosed on admission [(a) neurological disease, cerebral trauma or surgery; (b) cardiac surgery; (c) thoracic surgery and/or respiratory insufficiency; (d) abdominal surgery/peritonitis; (e) vascular surgery; (f) multiple trauma or severe burns: (g) organ transplantation; (h) others, mainly extensive oncological procedures] and balanced with the use of permuted blocks of ten.
All patients were fed continuously, on admission with mainly intravenous glucose (200-300 g/24 h) and from the next day onward with a standardised feeding schedule aiming for a caloric content up to 20-30 non-protein Calories/kg/24 h and a balanced composition (0.13-0.26 g nitrogen/kg/24 h and 20%-40% of non-protein Calories as lipids) of either total parenteral, combined parenteral/enteral or full enteral feeding, the latter mode attempted as early as possible. Other comcomitant ICU therapy was left to the discretion of attending physicians.
In patients treated in ICU for more than one week, a weekly electromyography (EMG) was performed to screen for Critical Illness Polyneuropathy. EMGs were interpreted by the same electrophysiologist who was blinded for randomization. In case of ICU death, a post-mortem examination was performed to confirm the presumed cause of death.
The primary outcome measure was death from all causes during intensive care. Secondary outcome measures were in-hospital mortality, incidence of prolonged intensive care dependency and need for ICU re-admission, need for vital organ system support comprising mechanical ventilatory support, renal replacement therapy (continuous or intermittent hemofiltration or dialysis), inotropic or vasopressor support, incidence of critical illness polyneuropathy, the degree of inflammation, incidence of blood stream infections and use of antibiotics, transfusion requirements and incidence of hyperbilirubinemia. Furthermore, use of intensive care resources was analysed by cumulative TISS scores. In order to accurately and objectively assess duration of ICU stay, which is often influenced by non-patient related factors such as bed availability on regular wards, patients were defined ‘dischargable from ICU’ when they were no longer in need of vital organ system support and received at least ⅔rd of the caloric need through the normal enteral route or earlier when actually sent to a ward.
We hypothesized to detect a difference in mortality selectively in long-stay (>5 days) critically ill patients. Since prolonged ICU stay is not predictable at ICU admission, and since we aimed at treatment from admission onward, we chose to include all mechanically ventilated patients admitted to the ICU, without selection. We estimated that inclusion of 2500 admissions would be needed to rule out an absolute difference in mortality of ±5% in the long-stay cohort which would translate in an absolute risk reduction of ±2% for overall ICU mortality (2-sided alfa level of <0.05). […] All analyses were done on intention to treat basis.
Baseline and outcome variables were compared using Student's t-test, Chi-square test and Mann-Whitney-U test, as appropriate. Death odds ratios were calculated using multivariate logistic regression analysis.

[2] = tested on: mechanically ventilated, adult patients admitted to the intensive care unit (ICU); experiment: Example 2: glycemia control (whole blood glucose); type: in vivo
Experimental: A blood sample was taken upon ICU admission and daily at 06:00 h until discharge from ICU or death. On-admission and daily morning, whole blood glucose level as well as daily maximal and minimal glycemia were analysed. Analyses on the 06:00 h sample also included clinical chemistry, hematology and markers of inflammation.

## insulin
[1]; IIS
  Causes of death during intensive care - total no: cardiogenic shock: 10
  Causes of death during intensive care - total no: multiple organ failure with proven septic focus: 8
  Causes of death during intensive care - total no: multiple organ failure, no detectable septic focus: 14
  Causes of death during intensive care - total no: severe brain damage: 3
  ICU deaths among patients staying >5 days (%): (10.6%)
  ICU deaths among patients staying >5 days - total no.: 22
  ICU deaths among patients staying ≤5 days (%): (2.3%)
  ICU deaths among patients staying ≤5 days - total no.: 13
  ICU deaths, abdominal surgery/peritonitis (%): (13.3%)
  ICU deaths, abdominal surgery/peritonitis - total no: 6
  ICU deaths, cardiac surgery (%): (2%)
  ICU deaths, cardiac surgery - total no.: 10
  ICU deaths, multiple trauma or severe burns (%): (12.1%)
  ICU deaths, multiple trauma or severe burns - total no.: 4
  ICU deaths, neurological disease, cerebral trauma or surgery (%): (18.1%)
  ICU deaths, neurological disease, cerebral trauma or surgery - total no.: 6
  ICU deaths, other types of critical illness (%): (8.7%)
  ICU deaths, other types of critical illness - total no: 25
  ICU deaths, others (%): (0%)
  ICU deaths, others - total no: 0
  ICU deaths, thoracic surgery and/or respiratory insufficiency - total no.: 5
  ICU deaths, transplantation (%): (4.3%)
  ICU deaths, transplantation - total no: 2
  ICU deaths, vascular surgery (%): (6.6%)
  ICU deaths, vascular surgery - total no.: 2
  In-hospital deaths among patients staying >5 days in ICU (%): (16.8%)
  In-hospital deaths among patients staying >5 days in ICU - total no.: 35
  In-hospital deaths among patients staying ≤5 days in ICU (%): (3.6%)
  In-hospital deaths among patients staying ≤5 days in ICU - total no.: 20
  Mortality in bacteremic patients: 12.5%
[1]; IIS vs RIS
  ICU deaths among patients staying >5 days, NNT: 11
  ICU deaths among patients staying >5 days, RRR (%): 47%
  ICU deaths among patients staying ≤5 days, RRR (%): =
  ICU deaths, NNT to save one life: 29
  ICU deaths, RRR (%): 43%
  In-hospital deaths among patients staying >5 days in ICU, NNT: 11
  In-hospital deaths among patients staying >5 days in ICU, RRR (%): 36%
  In-hospital deaths among patients staying ≤5 days in ICU, RRR (%): =
  In-hospital deaths, NNT: 27
  In-hospital deaths, RRR (%): 34%
[1]; IIS vs RIS, ICU stay >5 days
  ICU mortality, absolute risk reduction in the prolonged critically ill cohort: 9.6%
[1]; IIS, N = 765
  ICU deaths - total no.: 35
  In-hospital deaths - total no.: 55
[1]; RIS
  Causes of death during intensive care - total no: cardiogenic shock: 7
  Causes of death during intensive care - total no: multiple organ failure with proven septic focus: 33
  Causes of death during intensive care - total no: multiple organ failure, no detectable septic focus: 18
  Causes of death during intensive care - total no: severe brain damage: 5
  ICU deaths among patients staying >5 days (%): (20.2%)
  ICU deaths among patients staying >5 days - total no.: 49
  ICU deaths among patients staying ≤5 days (%): (2.6%)
  ICU deaths among patients staying ≤5 days - total no.: 14
  ICU deaths, abdominal surgery/peritonitis (%): (15.5%)
  ICU deaths, abdominal surgery/peritonitis - total no: 9
  ICU deaths, cardiac surgery (%): (5%)
  ICU deaths, cardiac surgery - total no.: 25
  ICU deaths, multiple trauma or severe burns (%): (8.6%)
  ICU deaths, multiple trauma or severe burns - total no.: 3
  ICU deaths, neurological disease, cerebral trauma or surgery (%): (23.3%)
  ICU deaths, neurological disease, cerebral trauma or surgery - total no.: 7
  ICU deaths, other types of critical illness (%): (13.1%)
  ICU deaths, other types of critical illness - total no: 38
  ICU deaths, others (%): (17.1%)
  ICU deaths, others - total no: 6
  ICU deaths, thoracic surgery and/or respiratory insufficiency (%): (17.9%)
  ICU deaths, thoracic surgery and/or respiratory insufficiency - total no.: 10
  ICU deaths, transplantation (%): (2.3%)
  ICU deaths, transplantation - total no: 1
  ICU deaths, vascular surgery (%): (6.3%)
  ICU deaths, vascular surgery - total no.: 2
  In-hospital deaths among patients staying >5 days in ICU (%): (26.3%)
  In-hospital deaths among patients staying >5 days in ICU - total no.: 64
  In-hospital deaths among patients staying ≤5 days in ICU (%): (3.9%)
  In-hospital deaths among patients staying ≤5 days in ICU - total no.: 21
  Mortality in bacteremic patients: 29.5%
[1]; RIS, N = 783
  ICU deaths - total no.: 63
  In-hospital deaths - total no.: 85
[1]; RIS, insulin-receiving patients
  ICU mortality among the RIS patients actually receiving insulin: 12.4%
[2]; IIS
  Mean 06:00 h blood glucose level when on insulin (mmol/L) (mean ± SD): 5.7 ± 1.0 mmol/L
  Patients who never exceeded 6.1 mmol/L after treatment initiation: 48%
  Patients who occasionally peaked over 8.4 mmol/L: 17%
  Patients with blood glucose levels that failed to go below 6.1 mmol/L within 48 h: 0.1%
[2]; IIS and RIS
  Consequences of hypoglycemia events: never induced serious symptoms such as hemodynamic deterioration or epilepsia
[2]; IIS, N = 765
  Mean 06:00 h blood glucose level (mmol/L) (mean ± SD): 5.8 ± 1.0 mmol/L and 5.7 ± 1.0 mmol/L
[2]; RIS
  Mean 06:00 h blood glucose level when on insulin (mmol/L) (mean ± SD): 9.6 ± 1.8 mmol/L
  Patients in whom glycemia transiently fell below 2.3 mmol/L, number: 6
[2]; RIS, N = 783
  Mean 06:00 h blood glucose level (mmol/L) (mean ± SD): 8.5 ± 1.8 mmol/L
